Reference: patent US12427157B2, “Methods for treatment of diseases involving acidic or hypoxic diseased tissues” (Cybrexa 1, Inc., priority 2018, dated 2025)
Residues, ends and D or L forms follow the SMILES beside them. *: point of attachment. X11 = CN(Cc1ccc(-c2[nH]c3cc(F)cc4c3c2CCNC4=O)cc1)C(=O)OCc1ccc(NC(=O)OCCS*)cc1; X23 = COC(=O)[C@@H](CS*)OC(=O)N(C)Cc1ccc(-c2[nH]c3cc(F)cc4c3c2CCNC4=O)cc1; X6 = CNCc1ccc(-c2c3c4c(cc(F)cc4n2[C@@H](CC(C)C)NC(=O)OCCS*)C(=O)NCC3)cc1; X20 = C[C@]12CCCN1C1=NNC(=O)c3cc(F)cc4c3c1c(n4CNC(=O)OCCS*)C2

Molecular target: PARP (Homo sapiens, UniProt P09874)
Assay: Enzymatic Assay 2: HT Universal Chemiluminescent PARP Assay of cleaved compounds;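 note: PARP reaction with activated DNA run 1 h at room temperature, product detected via streptavidin-HRP and luminescence endpoint reading on a plate reader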
Settings: read-out: IC50 Enzymatic Assay 2; Examples cleaved per Example A (crude cleavage solution); R^8H starting materials as such

Chain of PARP (P09874 whole entry): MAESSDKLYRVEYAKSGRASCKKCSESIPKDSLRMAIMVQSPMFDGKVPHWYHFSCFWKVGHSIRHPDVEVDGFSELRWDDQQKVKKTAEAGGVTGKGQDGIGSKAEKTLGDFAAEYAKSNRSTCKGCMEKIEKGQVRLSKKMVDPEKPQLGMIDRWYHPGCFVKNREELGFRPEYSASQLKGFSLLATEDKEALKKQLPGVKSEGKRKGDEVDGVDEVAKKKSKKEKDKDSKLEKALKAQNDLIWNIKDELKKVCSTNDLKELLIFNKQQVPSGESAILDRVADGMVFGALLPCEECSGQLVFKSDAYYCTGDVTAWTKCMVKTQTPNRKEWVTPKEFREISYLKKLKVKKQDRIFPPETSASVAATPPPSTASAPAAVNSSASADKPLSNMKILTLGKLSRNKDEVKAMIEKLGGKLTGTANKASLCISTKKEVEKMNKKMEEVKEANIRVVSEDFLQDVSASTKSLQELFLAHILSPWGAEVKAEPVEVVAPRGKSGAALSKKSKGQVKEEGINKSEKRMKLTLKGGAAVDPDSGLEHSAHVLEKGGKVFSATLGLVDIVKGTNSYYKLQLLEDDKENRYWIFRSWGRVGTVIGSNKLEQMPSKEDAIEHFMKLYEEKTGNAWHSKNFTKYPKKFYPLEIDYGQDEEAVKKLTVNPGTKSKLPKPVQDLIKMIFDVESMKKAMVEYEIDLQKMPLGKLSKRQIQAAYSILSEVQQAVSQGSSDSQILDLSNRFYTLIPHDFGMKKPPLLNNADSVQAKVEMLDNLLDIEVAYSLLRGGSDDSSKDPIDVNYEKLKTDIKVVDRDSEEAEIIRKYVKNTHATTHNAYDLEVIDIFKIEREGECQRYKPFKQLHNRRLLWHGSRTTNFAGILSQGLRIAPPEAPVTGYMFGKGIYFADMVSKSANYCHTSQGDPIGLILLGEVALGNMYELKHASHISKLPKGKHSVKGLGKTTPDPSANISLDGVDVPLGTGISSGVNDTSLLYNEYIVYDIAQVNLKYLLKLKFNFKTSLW

CC[C@H](C)[C@H](NC(=O)[C@@H]1CCCN1C(=O)[C@H](CC(N)=O)NC(=O)[C@H](CCC(N)=O)NC(=O)[C@H](CCC(=O)O)NC(=O)[C@H](C)N)C(=O)N[C@@H](Cc1ccc(O)cc1)C(=O)N[C@@H](Cc1c[nH]c2ccccc12)C(=O)N[C@@H](C)C(=O)N[C@@H](CCCNC(=N)N)C(=O)N[C@@H](Cc1ccc(O)cc1)C(=O)N[C@@H](C)C(=O)N[C@@H](CC(=O)O)C(=O)N[C@@H](Cc1c[nH]c2ccccc12)C(=O)N[C@@H](CC(C)C)C(=O)N[C@@H](Cc1ccccc1)C(=O)N[C@H](C(=O)N[C@H](C(=O)N1CCC[C@H]1C(=O)N[C@@H](CC(C)C)C(=O)N[C@@H](CC(C)C)C(=O)N[C@@H](CC(C)C)C(=O)N[C@@H](CC(C)C)C(=O)N[C@@H](CC(=O)O)C(=O)N[C@@H](CC(C)C)C(=O)N[C@@H](C)C(=O)N[C@@H](CC(C)C)C(=O)N[C@@H](CC(C)C)C(=O)N[C@H](C(=O)N[C@@H](CC(=O)O)C(=O)N[C@@H](C)C(=O)N[C@@H](CC(=O)O)C(=O)N[C@@H](CCC(=O)O)C(=O)N[C@@H](CSSC[C@@H](OC(=O)N(C)Cc1ccc(-c2[nH]c3cc(F)cc4c3c2CCNC4=O)cc1)C(=O)OC)C(=O)NCC(=O)O)C(C)C)[C@@H](C)O)[C@@H](C)O [Example 26] (H-AEQNPIYWARYADWLFTTPLLLLDLALLVDADEC(X23)G-OH; N-terminus and C-terminus assumed)
IC50: 2 nM

CC(C)C[C@H](NC(=O)[C@H](Cc1ccc(O)cc1)NC(=O)[C@H](C)NC(=O)[C@H](CCCNC(=N)N)NC(=O)[C@H](Cc1c[nH]c2ccccc12)NC(=O)[C@@H]1CCCN1C(=O)[C@H](CC(N)=O)NC(=O)[C@H](CCC(N)=O)NC(=O)[C@H](CC(=O)O)NC(=O)[C@H](CC(=O)O)NC(=O)[C@H](C)N)C(=O)N[C@@H](CC(=O)O)C(=O)N[C@@H](CC(C)C)C(=O)N[C@@H](CC(C)C)C(=O)N[C@@H](Cc1ccccc1)C(=O)N1CCC[C@H]1C(=O)N[C@H](C(=O)N[C@@H](CC(=O)O)C(=O)N[C@H](C(=O)N[C@@H](CC(C)C)C(=O)N[C@@H](CC(C)C)C(=O)N[C@@H](CC(C)C)C(=O)N[C@@H](CC(=O)O)C(=O)N[C@@H](CC(C)C)C(=O)N[C@@H](CC(C)C)C(=O)N[C@@H](Cc1c[nH]c2ccccc12)C(=O)N[C@@H](CC(=O)O)C(=O)N[C@@H](C)C(=O)N[C@@H](CC(=O)O)C(=O)N[C@@H](CCC(=O)O)C(=O)N[C@@H](CSSc1ccc(COC(=O)N2CCC[C@]2(C)c2nc3c(C(N)=O)cccc3[nH]2)cc1)C(=O)NCC(=O)O)[C@@H](C)O)[C@@H](C)O [Example 56]
IC50: 0.8 nM

CC[C@H](C)[C@H](NC(=O)[C@@H]1CCCN1C(=O)[C@H](CC(N)=O)NC(=O)[C@H](CCC(N)=O)NC(=O)[C@H](CCC(=O)O)NC(=O)[C@H](C)N)C(=O)N[C@@H](Cc1ccc(O)cc1)C(=O)N[C@@H](Cc1c[nH]c2ccccc12)C(=O)N[C@@H](C)C(=O)N[C@@H](CCCNC(=N)N)C(=O)N[C@@H](Cc1ccc(O)cc1)C(=O)N[C@@H](C)C(=O)N[C@@H](CC(=O)O)C(=O)N[C@@H](Cc1c[nH]c2ccccc12)C(=O)N[C@@H](CC(C)C)C(=O)N[C@@H](Cc1ccccc1)C(=O)N[C@H](C(=O)N[C@H](C(=O)N1CCC[C@H]1C(=O)N[C@@H](CC(C)C)C(=O)N[C@@H](CC(C)C)C(=O)N[C@@H](CC(C)C)C(=O)N[C@@H](CC(C)C)C(=O)N[C@@H](CC(=O)O)C(=O)N[C@@H](CC(C)C)C(=O)N[C@@H](C)C(=O)N[C@@H](CC(C)C)C(=O)N[C@@H](CC(C)C)C(=O)N[C@H](C(=O)N[C@@H](CC(=O)O)C(=O)N[C@@H](C)C(=O)N[C@@H](CC(=O)O)C(=O)N[C@@H](CCC(=O)O)C(=O)N[C@@H](CSSCCOC(=O)Nc1ccc(COC(=O)N(C)Cc2ccc(-c3[nH]c4cc(F)cc5c4c3CCNC5=O)cc2)cc1)C(=O)NCC(=O)O)C(C)C)[C@@H](C)O)[C@@H](C)O [Example 32] (H-AEQNPIYWARYADWLFTTPLLLLDLALLVDADEC(X11)G-OH; N-terminus and C-terminus assumed)
IC50: 43.9 nM

CC(C)C[C@H](NC(=O)[C@H](Cc1ccc(O)cc1)NC(=O)[C@H](C)NC(=O)[C@H](CCCNC(=N)N)NC(=O)[C@H](Cc1c[nH]c2ccccc12)NC(=O)[C@@H]1CCCN1C(=O)[C@H](CC(N)=O)NC(=O)[C@H](CCC(N)=O)NC(=O)[C@H](CC(=O)O)NC(=O)[C@H](CC(=O)O)NC(=O)[C@H](C)N)C(=O)N[C@@H](CC(=O)O)C(=O)N[C@@H](CC(C)C)C(=O)N[C@@H](CC(C)C)C(=O)N[C@@H](Cc1ccccc1)C(=O)N1CCC[C@H]1C(=O)N[C@H](C(=O)N[C@@H](CC(=O)O)C(=O)N[C@H](C(=O)N[C@@H](CC(C)C)C(=O)N[C@@H](CC(C)C)C(=O)N[C@@H](CC(C)C)C(=O)N[C@@H](CC(=O)O)C(=O)N[C@@H](CC(C)C)C(=O)N[C@@H](CC(C)C)C(=O)N[C@@H](Cc1c[nH]c2ccccc12)C(=O)N[C@@H](CSS[C@H](C)COC(=O)N(C)Cc1ccc(-c2[nH]c3cc(F)cc4c3c2CCNC4=O)cc1)C(=O)NCC(=O)O)[C@@H](C)O)[C@@H](C)O [Example 18]
IC50: 1.1 nM

CC(C)C[C@H](NC(=O)[C@H](Cc1ccc(O)cc1)NC(=O)[C@H](C)NC(=O)[C@H](CCCNC(=N)N)NC(=O)[C@H](Cc1c[nH]c2ccccc12)NC(=O)[C@@H]1CCCN1C(=O)[C@H](CC(N)=O)NC(=O)[C@H](CCC(N)=O)NC(=O)[C@H](CC(=O)O)NC(=O)[C@H](CC(=O)O)NC(=O)[C@H](C)N)C(=O)N[C@@H](CC(=O)O)C(=O)N[C@@H](CC(C)C)C(=O)N[C@@H](CC(C)C)C(=O)N[C@@H](Cc1ccccc1)C(=O)N1CCC[C@H]1C(=O)N[C@H](C(=O)N[C@@H](CC(=O)O)C(=O)N[C@H](C(=O)N[C@@H](CC(C)C)C(=O)N[C@@H](CC(C)C)C(=O)N[C@@H](CC(C)C)C(=O)N[C@@H](CC(=O)O)C(=O)N[C@@H](CC(C)C)C(=O)N[C@@H](CC(C)C)C(=O)N[C@@H](Cc1c[nH]c2ccccc12)C(=O)N[C@@H](CSSCCOC(=O)OCc1ccc(-c2nc3c(C(N)=O)cccc3[nH]2)cc1)C(=O)NCC(=O)O)[C@@H](C)O)[C@@H](C)O [Example 1]
IC50: 12.1 nM

CC(C)C[C@H](NC(=O)[C@H](Cc1ccc(O)cc1)NC(=O)[C@H](C)NC(=O)[C@H](CCCNC(=N)N)NC(=O)[C@H](Cc1c[nH]c2ccccc12)NC(=O)[C@@H]1CCCN1C(=O)[C@H](CC(N)=O)NC(=O)[C@H](CCC(N)=O)NC(=O)[C@H](CC(=O)O)NC(=O)[C@H](CC(=O)O)NC(=O)[C@H](C)N)C(=O)N[C@@H](CC(=O)O)C(=O)N[C@@H](CC(C)C)C(=O)N[C@@H](CC(C)C)C(=O)N[C@@H](Cc1ccccc1)C(=O)N1CCC[C@H]1C(=O)N[C@H](C(=O)N[C@@H](CC(=O)O)C(=O)N[C@H](C(=O)N[C@@H](CC(C)C)C(=O)N[C@@H](CC(C)C)C(=O)N[C@@H](CC(C)C)C(=O)N[C@@H](CC(=O)O)C(=O)N[C@@H](CC(C)C)C(=O)N[C@@H](CC(C)C)C(=O)N[C@@H](Cc1c[nH]c2ccccc12)C(=O)N[C@@H](CC(=O)O)C(=O)N[C@@H](C)C(=O)N[C@@H](CC(=O)O)C(=O)N[C@@H](CCC(=O)O)C(=O)N[C@@H](CSS[C@@H](C)COC(=O)N1CCC[C@@H](c2ccc(-n3cc4cccc(C(N)=O)c4n3)cc2)C1)C(=O)NCC(=O)O)[C@@H](C)O)[C@@H](C)O [Example 46]
IC50: 3.7 nM

CC[C@H](C)[C@H](NC(=O)[C@@H]1CCCN1C(=O)[C@H](CC(N)=O)NC(=O)[C@H](CCC(N)=O)NC(=O)[C@H](CCC(=O)O)NC(=O)[C@H](C)N)C(=O)N[C@@H](Cc1ccc(O)cc1)C(=O)N[C@@H](Cc1c[nH]c2ccccc12)C(=O)N[C@@H](C)C(=O)N[C@@H](CCCNC(=N)N)C(=O)N[C@@H](Cc1ccc(O)cc1)C(=O)N[C@@H](C)C(=O)N[C@@H](CC(=O)O)C(=O)N[C@@H](Cc1c[nH]c2ccccc12)C(=O)N[C@@H](CC(C)C)C(=O)N[C@@H](Cc1ccccc1)C(=O)N[C@H](C(=O)N[C@H](C(=O)N1CCC[C@H]1C(=O)N[C@@H](CC(C)C)C(=O)N[C@@H](CC(C)C)C(=O)N[C@@H](CC(C)C)C(=O)N[C@@H](CC(C)C)C(=O)N[C@@H](CC(=O)O)C(=O)N[C@@H](CC(C)C)C(=O)N[C@@H](C)C(=O)N[C@@H](CC(C)C)C(=O)N[C@@H](CC(C)C)C(=O)N[C@H](C(=O)N[C@@H](CC(=O)O)C(=O)N[C@@H](C)C(=O)N[C@@H](CC(=O)O)C(=O)N[C@@H](CCC(=O)O)C(=O)N[C@@H](CSSCCOC(=O)NCn1c2c3c4c(cc(F)cc41)C(=O)NN=C3N1CCC[C@]1(C)C2)C(=O)NCC(=O)O)C(C)C)[C@@H](C)O)[C@@H](C)O [Example 38] (H-AEQNPIYWARYADWLFTTPLLLLDLALLVDADEC(X20)G-OH; N-terminus and C-terminus assumed)
IC50: 2.8 nM

CC[C@H](C)[C@H](NC(=O)[C@@H]1CCCN1C(=O)[C@H](CC(N)=O)NC(=O)[C@H](CCC(N)=O)NC(=O)[C@H](CCC(=O)O)NC(=O)[C@H](C)N)C(=O)N[C@@H](Cc1ccc(O)cc1)C(=O)N[C@@H](Cc1c[nH]c2ccccc12)C(=O)N[C@@H](C)C(=O)N[C@@H](CCCNC(=N)N)C(=O)N[C@@H](Cc1ccc(O)cc1)C(=O)N[C@@H](C)C(=O)N[C@@H](CC(=O)O)C(=O)N[C@@H](Cc1c[nH]c2ccccc12)C(=O)N[C@@H](CC(C)C)C(=O)N[C@@H](Cc1ccccc1)C(=O)N[C@H](C(=O)N[C@H](C(=O)N1CCC[C@H]1C(=O)N[C@@H](CC(C)C)C(=O)N[C@@H](CC(C)C)C(=O)N[C@@H](CC(C)C)C(=O)N[C@@H](CC(C)C)C(=O)N[C@@H](CC(=O)O)C(=O)N[C@@H](CC(C)C)C(=O)N[C@@H](C)C(=O)N[C@@H](CC(C)C)C(=O)N[C@@H](CC(C)C)C(=O)N[C@H](C(=O)N[C@@H](CC(=O)O)C(=O)N[C@@H](C)C(=O)N[C@@H](CC(=O)O)C(=O)N[C@@H](CCC(=O)O)C(=O)N[C@@H](CSSCCOC(=O)N[C@H](CC(C)C)n1c(-c2ccc(CNC)cc2)c2c3c(cc(F)cc31)C(=O)NCC2)C(=O)NCC(=O)O)C(C)C)[C@@H](C)O)[C@@H](C)O [Example 35] (H-AEQNPIYWARYADWLFTTPLLLLDLALLVDADEC(X6)G-OH; N-terminus and C-terminus assumed)
IC50: 3.1 nM
